Data: patent publication US20050065071A1, “Cyclic analogs of human parathyroid hormone for the treatment of conditions characterized by hyperproliferative skin cells” (National Research Council of Canada, priority 2003, published 2005)
Bridges are numbered along the chain shown (N, C = ends). Where no end group is shown, it is not given here.

System: skin cells
Experiment: Topical administration to SKH-1 hairless mice, skin cell proliferation by ^3H-thymidine incorporation
Assay type: in vivo
Settings: 1 μg, 10 μg or 50 μg once a day, 7 days, analog given with Novasome, compared with hPTH-(1-34) and untreated control (FIG. 6)
Protocol: FIG. 6 is a histogram showing the effects of no treatment (Control) or of topical administration of 1 μg, 10 μg, or 50 μg of hPTH-(1-34) (1-34) or [Leu^27]cyclo(Glu^22-Lys^26)-hPTH-(1-31)-NH2 (c1-c31) to SKH-1 mice on the proliferation of skin cells, as measured by ^3H-thymidine incorporation (counts per minute/μg protein) in SKH-1 mice after 7 days of administration.
SKH-1 hairless mice were administered the human parathyroid hormone hPTH analog [Leu^27]cyclo(Glu^22-Lys^26)-hPTH-(1-31)-NH2 with Novasome (a liposomal formulation available, for example, from IGI, Inc., Buena, N.J.) or hPTH-(1-34) at dosages of 1 μg, 10 μg, or 50 μg once a day, or were left untreated (control). On day 7, the mice were injected twice with ^3H-thymidine, and on day 8, the mice were injected with ^3H-thymidine and bromodeoxyuridine (1.5 mg/mouse) and sacrificed within 3 hours. ^3H-thymidine incorporation was then assessed, using standard methods. The results of this study are shown in FIG. 6, which is a histogram showing the effects of no treatment (Control) or of topical administration of 1 μg, 10 μg, or 50 μg of hPTH-(1-34) (1-34) or [Leu^27]cyclo(Glu^22-Lys^26)-hPTH-(1-31)-NH2 (c1-c31) on proliferation of skin cells, as measured by ^3H-thymidine incorporation (counts per minute/μg protein) in SKH-1 mice. […]

cyclo(Lys^26-Asp^30) [Leu^27]-hPTH-(1-31)-NH2
proliferation of skin cells, as measured by ^3H-thymidine incorporation: Decreases Skin Cell Proliferation

[Leu^27]cyclo(Glu^22-Lys^26)-hPTH-(1-31)-NH2 (SVSEIQLMHNLGKHLNSMERVEWLRKLLQDV-NH2; lactam 22-26; N-terminus assumed; SMILES CC[C@H](C)[C@H](NC(=O)[C@H](CCC(=O)O)NC(=O)[C@H](CO)NC(=O)[C@@H](NC(=O)[C@@H](N)CO)C(C)C)C(=O)N[C@@H](CCC(N)=O)C(=O)N[C@@H](CC(C)C)C(=O)N[C@@H](CCSC)C(=O)N[C@@H](Cc1c[nH]cn1)C(=O)N[C@@H](CC(N)=O)C(=O)N[C@@H](CC(C)C)C(=O)NCC(=O)N[C@@H](CCCCN)C(=O)N[C@@H](Cc1c[nH]cn1)C(=O)N[C@@H](CC(C)C)C(=O)N[C@@H](CC(N)=O)C(=O)N[C@@H](CO)C(=O)N[C@@H](CCSC)C(=O)N[C@@H](CCC(=O)O)C(=O)N[C@@H](CCCNC(=N)N)C(=O)N[C@H](C(=O)N[C@H]1CCC(=O)NCCCC[C@@H](C(=O)N[C@@H](CC(C)C)C(=O)N[C@@H](CC(C)C)C(=O)N[C@@H](CCC(N)=O)C(=O)N[C@@H](CC(=O)O)C(=O)N[C@H](C(N)=O)C(C)C)NC(=O)[C@H](CCCNC(=N)N)NC(=O)[C@H](CC(C)C)NC(=O)[C@H](Cc2c[nH]c3ccccc23)NC1=O)C(C)C)
proliferation of skin cells, as measured by ^3H-thymidine incorporation: significantly more effective at inhibiting ^3H-thymidine incorporation than hPTH-(1-34)
